From US9969698B2, “Quinoxalinyl-piperazinamide methods of use” (REXAHN PHARMACEUTICALS, INC., priority 2015, dated 2018)
Read-outs that look alike come from different tables or passages of the source.

Experiment: Human pharmacokinetics, dose-ranging study
Assay type: in vivo
Details: for AUC(0-t) / Cmax / half-life / Tmax: human, plasma, po, oral capsule; for Cmax: read-out: Cmax; for half-life: read-out: T1/2 (converted); for Tmax: read-out: Tmax
Procedure: In a dose-ranging study, the pharmacokinetics (PK), safety and tolerability of RX-5902 at various oral doses were evaluated. Subjects with advanced or metastatic solid tumors were administered capsules containing RX-5902 at daily doses of 25-775 mg once weekly, 250-300 mg three times a week, 150-300 mg five times a week, or 300-350 mg seven times a week of RX-5902 for up to 6 dosing cycles. Each cycle consisting of 1-5 doses of RX-5902 per week for 3 weeks followed by 1 week of rest, or 5-7 doses of RX-5902 per week for 4 weeks without any rest per 4-week cycle. All but one subject had fasted from food for at least 8 hours before administration. One subject received 300 mg RX-5902 in fed state. Plasma concentrations were measured on Days 1 and 15, for 48 hrs, using a validated LC-MS/MS assay, and noncompartmental pharmacokinetic parameters were calculated using Phoenix WinNonlin, Version 6.4.
Preliminary PK data after a single administration is presented in FIG. 1 (for Subjects #1-11) and Table 3.

[1] = 25 mg, 25 mg, 1 per week, Day 1, fasted
[2] = 50 mg, 50 mg, 1 per week, Day 1, fasted
[3] = 100 mg, 100 mg, 1 per week, Day 1, fasted
[4] = 150 mg, 150 mg, 1 per week, Day 1, fasted
[5] = 150 mg, 150 mg, 5 per week, Day 1, fasted
[6] = 150 mg, 150 mg, 5 per week, Day 15, fasted
[7] = 200 mg, 200 mg, 5 per week, Day 1, fasted
[8] = 200 mg, 200 mg, 5 per week, Day 15, fasted
[9] = 225 mg, 225 mg, 1 per week, Day 1, fasted
[10] = 250 mg, 250 mg, 3 per week, Day 1, fasted
[11] = 250 mg, 250 mg, 3 per week, Day 15, fasted
[12] = 300 mg, 300 mg, 1 per week, Day 1, fasted

With COc1cc(OC)cc(N2CCN(C(=O)Nc3nc4cc(F)ccc4nc3OC)CC2)c1 [RX-5902, 4-(3,5-dimethoxyphenyl)-N-(7-fluoro-3-methoxyquinoxalin-2-yl)piperazine-1-carboxamide] the “exposure in fed state compared to fasted state” value (300 mg oral, one fed subject) was “significantly higher exposure”, the AUC(0-t) (25 mg, 25 mg, 1 per week, Day 1, fasted, read-out: AUC0-24) was 830 ng·h/mL and the AUC(0-t) (25 mg, 25 mg, 1 per week, Day 1, fasted, read-out: AUC0-48) was 894 ng·h/mL. The Cmax [1] was 99.1 ng/mL, the half-life [1] was 5.8 h and the Tmax [1] was 6 h. For the same molecule, the AUC(0-t) (50 mg, 50 mg, 1 per week, Day 1, fasted, read-out: AUC0-24) was 1030 ng·h/mL, the AUC(0-t) (50 mg, 50 mg, 1 per week, Day 1, fasted, read-out: AUC0-48) was 1310 ng·h/mL and the Cmax [2] was 109 ng/mL. For the same molecule, the half-life [2] was 13.2 h, the Tmax [2] was 1.5 h and the AUC(0-t) (100 mg, 100 mg, 1 per week, Day 1, fasted, read-out: AUC0-24) was 1780 ng·h/mL. For the same molecule, the AUC(0-t) (100 mg, 100 mg, 1 per week, Day 1, fasted, read-out: AUC0-48) was 2340 ng·h/mL, the Cmax [3] was 252 ng/mL and the half-life [3] was 27.6 h. For the same molecule, the Tmax [3] was 2 h, the AUC(0-t) (150 mg, 150 mg, 1 per week, Day 1, fasted, read-out: AUC0-24) was 2690 ng·h/mL and the AUC(0-t) (150 mg, 150 mg, 1 per week, Day 1, fasted, read-out: AUC0-48) was 3280 ng·h/mL. For the same molecule, the Cmax [4] was 226 ng/mL, the half-life [4] was 11.5 h and the Tmax [4] was 6 h. It also gave an AUC(0-t) (150 mg, 150 mg, 5 per week, Day 1, fasted, read-out: AUC0-24) of 2150 ng·h/mL, a Cmax [5] of 227 ng/mL and a Tmax [5] of 2 h. It also gave an AUC(0-t) (150 mg, 150 mg, 5 per week, Day 15, fasted, read-out: AUC0-24) of 3720 ng·h/mL, a Cmax [6] of 347 ng/mL and a Tmax [6] of 1 h. For the same molecule, the AUC(0-t) (200 mg, 200 mg, 5 per week, Day 1, fasted, read-out: AUC0-24) was 2750 ng·h/mL, the Cmax [7] was 337 ng/mL and the half-life [7] was 8.5 h. For the same molecule, the Tmax [7] was 4 h, the AUC(0-t) (200 mg, 200 mg, 5 per week, Day 15, fasted, read-out: AUC0-24) was 4030 ng·h/mL and the Cmax [8] was 440 ng/mL. The Tmax [8] was 2 h, the AUC(0-t) (225 mg, 225 mg, 1 per week, Day 1, fasted, read-out: AUC0-24) was 3420 ng·h/mL and the AUC(0-t) (225 mg, 225 mg, 1 per week, Day 1, fasted, read-out: AUC0-48) was 4310 ng·h/mL. For the same molecule, the Cmax [9] was 364 ng/mL, the half-life [9] was 12 h and the Tmax [9] was 4 h. It also gave an AUC(0-t) (250 mg, 250 mg, 3 per week, Day 1, fasted, read-out: AUC0-24) of 3980 ng·h/mL, an AUC(0-t) (250 mg, 250 mg, 3 per week, Day 1, fasted, read-out: AUC0-48) of 5210 ng·h/mL and a Cmax [10] of 394 ng/mL. It also gave a half-life [10] of 14 h, a Tmax [10] of 2 h and an AUC(0-t) (250 mg, 250 mg, 3 per week, Day 15, fasted, read-out: AUC0-24) of 4810 ng·h/mL. It also gave an AUC(0-t) (250 mg, 250 mg, 3 per week, Day 15, fasted, read-out: AUC0-48) of 7770 ng·h/mL, a Cmax [11] of 403 ng/mL and a Tmax [11] of 2 h. It also gave an AUC(0-t) (300 mg, 300 mg, 1 per week, Day 1, fasted, read-out: AUC0-24) of 4680 ng·h/mL, an AUC(0-t) (300 mg, 300 mg, 1 per week, Day 1, fasted, read-out: AUC0-48) of 6140 ng·h/mL and a Cmax [12] of 318 ng/mL. For the same molecule, the half-life [12] was 14.6 h and the AUC(0-t) (300 mg, 300 mg, 1 per week, Day 1, fed, read-out: AUC0-24) was 8620 ng·h/mL.
